What was measured:
Type in all cases: cell-based
MCF-7 [1] = assay: Cell proliferation assay, MCF-7; settings: Homo sapiens, MCF7; MCF-7 cell line, Table II; read-out: Activity (IC50, cell proliferation)
Method: The MCF-7 cell line, the MDR cell line, and the MCF-7/ADR cell line were used. Alamar Blue™ was used to quantitate cell viability.
The compounds listed in Table II were prepared using the procedures outlined in the above Examples.

NCI-H460 = assay: Cell proliferation assay, NSC Lung Cancer NCI-H460; settings: Homo sapiens, read-out: GI50 or IC50, NSC Lung Cancer NCI-H460
Method: (§1) The compounds listed in Table III were prepared using the procedures outlined in the above Examples.

MES-SA/Dx5 = assay: Cell proliferation assay, Uterine MES-SA/Dx5; settings: Homo sapiens, read-out: GI50 or IC50, Uterine MES-SA/Dx5
Method: (§2) The compounds listed in Table IV were prepared using the procedures outlined in the above Examples.

MCF-7 [2] = assay: Cell proliferation assay (panel), Breast Cancer MCF-7; settings: Homo sapiens, MCF7; read-out: GI50 or IC50, Breast Cancer MCF-7
Method: as §2

NCI-ADR = assay: Cell proliferation assay, Breast Cancer NCI-ADR; settings: Homo sapiens, NCI/ADR-RES; read-out: GI50 or IC50, Breast Cancer NCI-ADR
Method: as §2

HL-60 = assay: Cell proliferation assay, Leukemia HL-60; settings: Homo sapiens, read-out: GI50 or IC50, Leukemia HL-60
Method: as §1

HL60-MX1 (MDR) = assay: Cell proliferation assay, Leukemia HL60-MX1 (MDR); settings: read-out: GI50 or IC50, Leukemia HL60-MX1 (MDR)
Method: as §1

H69-AR (MDR) = assay: Cell proliferation assay, SC Lung Cancer H69-AR (MDR); settings: Homo sapiens, H69AR; read-out: GI50 or IC50, SC Lung Cancer H69-AR (MDR)
Method: as §1

HCT-15 = assay: Cell proliferation assay, Colon Cancer HCT-15; settings: Homo sapiens, read-out: GI50 or IC50, Colon Cancer HCT-15
Method: as §1

SF-268 = assay: Cell proliferation assay, CNS Cancer SF-268; settings: Homo sapiens, read-out: GI50 or IC50, CNS Cancer SF-268
Method: as §1

SK-MEL-2 = assay: Cell proliferation assay, Melanoma SK-MEL-2; settings: Homo sapiens, read-out: GI50 or IC50, Melanoma SK-MEL-2
Method: as §2

OVCAR-3 = assay: Cell proliferation assay, Ovarian Cancer OVCAR-3; settings: Homo sapiens, read-out: GI50 or IC50, Ovarian Cancer OVCAR-3
Method: as §2

UO-31 = assay: Cell proliferation assay, Renal Cancer UO-31; settings: Homo sapiens, read-out: GI50 or IC50, Renal Cancer UO-31
Method: as §2

PC-3 = assay: Cell proliferation assay, Prostate Cancer PC-3; settings: Homo sapiens, read-out: GI50 or IC50, Prostate Cancer PC-3
Method: as §2

Compound | IC50 (MCF-7 [1]) | IC50 (NCI-H460) | IC50 (MCF-7 [2]) | IC50 (HCT-15) | IC50 (SF-268) | IC50 (SK-MEL-2) | IC50 (OVCAR-3) | IC50 (UO-31) | IC50 (PC-3) | further results
O=C(NCCN1CCCC1)c1cccc(-c2ccc(-c3ccccc3)cc2)c1 | 1000 to 10000 nM |  |  |  |  |  |  |  |  | 
O=C(Nc1ccc(N2CCNCC2)nc1)c1ccc(Cl)c(-c2ccc(-c3ccccc3)cc2)c1 [Compound 36, 6″-Chloro-[1,1′;4′,1″]terphenyl-3″-carboxylic acid (6-piperazin-1-yl-pyridin-3-yl)-amide] |  | ≤ 1000 nM | ≤ 1000 nM |  |  |  |  |  |  | IC50 (MES-SA/Dx5): ≤ 1000 nM; IC50 (NCI-ADR): ≤ 1000 nM
O=C(Nc1cccnc1Cl)c1ccc(Cl)c(-c2ccc(-c3ccccc3)cc2)c1 | > 10000 nM |  |  |  |  |  |  |  |  | 
O=C(NCC1CCCO1)c1ccc(Cl)c(-c2ccc(-c3ccccc3)cc2)c1 (centres unmarked) [Compound 58, 6-Chloro-[1,1′;4′,1″]terphenyl-3-carboxylic acid (tetrahydro-furan-2-ylmethyl)-amide] |  | 1000 to 25000 nM | 1000 to 25000 nM | 1000 to 25000 nM | 1000 to 25000 nM | 1000 to 25000 nM | 1000 to 25000 nM | 1000 to 25000 nM | 1000 to 25000 nM | IC50 (HL-60): 1000 to 25000 nM; IC50 (HL60-MX1 (MDR)): 1000 to 25000 nM; IC50 (H69-AR (MDR)): ≤ 1000 nM; IC50 (MES-SA/Dx5): ≤ 1000 nM; IC50 (NCI-ADR): ≤ 1000 nM
O=C(NCCN1CCCC1)c1ccc(Cl)c(-c2ccc(-c3ccccc3)cc2)c1 [Compound 26, 6-Chloro-[1,1′;4′,1″]terphenyl-3-carboxylic acid (2-pyrrolidin-1-yl-ethyl)-amide] |  | 1000 to 25000 nM | 1000 to 25000 nM | 1000 to 25000 nM | 1000 to 25000 nM | 1000 to 25000 nM | 1000 to 25000 nM | 1000 to 25000 nM | 1000 to 25000 nM | 
COc1ccc(NC(=O)c2ccc(C)c(-c3ccc(-c4ccccn4)cc3)c2)cn1 [Compound 40, 6-Methyl-4′-pyridin-2-yl-biphenyl-3-carboxylic acid (6-methoxy-pyridin-3-yl)-amide] |  | ≤ 1000 nM | ≤ 1000 nM | ≤ 1000 nM | ≤ 1000 nM | > 25000 nM | ≤ 1000 nM |  | ≤ 1000 nM | IC50 (HL60-MX1 (MDR)): ≤ 1000 nM; IC50 (H69-AR (MDR)): ≤ 1000 nM; IC50 (MES-SA/Dx5): ≤ 1000 nM
O=C(NC(CCc1ccccc1)C(=O)O)c1ccc(Cl)c(-c2cccc(-c3ccccc3)c2)c1 (centres unmarked) [Compound 223, 2-[(6-Chloro-[1,1′;3′,1″]terphenyl-3-carbonyl)-amino]-4-phenyl-butyric acid] |  |  | > 25000 nM |  | > 25000 nM |  |  |  |  | 
Cc1ccc(NC(=O)c2ccc(Cl)c(-c3ccc(-c4ccccc4)cc3)c2)cc1 [Compound 20, 6-Chloro-[1,1′;4′,1″]terphenyl-3-carboxylic acid p-tolylamide] |  | 1000 to 25000 nM | ≤ 1000 nM | > 25000 nM | 1000 to 25000 nM | > 25000 nM | 1000 to 25000 nM | 1000 to 25000 nM | 1000 to 25000 nM | 
COc1ccc(NC(=O)c2ccc(Cl)c(-c3ccc(-c4ccncc4)cc3)c2)cn1 [Compound 17, 6-Chloro-4′-pyridin-4-yl-biphenyl-3-carboxylic acid (6-methoxy-pyridin-3-yl)-amide] |  | ≤ 1000 nM | ≤ 1000 nM | ≤ 1000 nM | ≤ 1000 nM | ≤ 1000 nM | ≤ 1000 nM | ≤ 1000 nM | ≤ 1000 nM | IC50 (HL60-MX1 (MDR)): ≤ 1000 nM; IC50 (MES-SA/Dx5): ≤ 1000 nM; IC50 (NCI-ADR): ≤ 1000 nM
O=C(NCCc1c[nH]cn1)C1Cc2ccccc2CN1C(=O)c1ccc(Cl)c(-c2ccc(-c3ccccc3)cc2)c1 (centres unmarked) | > 10000 nM |  |  |  |  |  |  |  |  | 
COc1ccc(NC(=O)c2ccc(Cl)c(-c3ccc(-c4ccccc4)cc3)c2)cc1 [Compound 303, 6″-Chloro-[1,1′;4′,1″]terphenyl-3″-carboxylic acid (4-methoxy-phenyl)-amide] |  | ≤ 1000 nM | ≤ 1000 nM | ≤ 1000 nM | ≤ 1000 nM | > 25000 nM | ≤ 1000 nM | 1000 to 25000 nM | ≤ 1000 nM | 
O=C(Nc1cnccn1)c1ccc(Cl)c(-c2ccc(-c3ccccc3)cc2)c1 [Compound 5, 6″-Chloro-[1,1′;4′,1″]terphenyl-3″-carboxylic acid pyrazin-2-ylamide] |  | ≤ 1000 nM | ≤ 1000 nM | ≤ 1000 nM | ≤ 1000 nM | 1000 to 25000 nM | ≤ 1000 nM | ≤ 1000 nM | ≤ 1000 nM | IC50 (HL-60): ≤ 1000 nM; IC50 (HL60-MX1 (MDR)): ≤ 1000 nM; IC50 (H69-AR (MDR)): ≤ 1000 nM; IC50 (MES-SA/Dx5): ≤ 1000 nM
CCN(C(=O)c1ccc(Cl)c(-c2ccc(-c3ccccc3)cc2)c1)c1ccc2c(c1)OCO2 | > 10000 nM |  |  |  |  |  |  |  |  | 
O=C(NCC(c1cccnc1)N1CCCC1)c1ccc(Cl)c(-c2ccc(-c3ccccc3)cc2)c1 (centres unmarked) [Compound 32, 6-Chloro-[1,1′;4′,1″]terphenyl-3-carboxylic acid (2-pyridin-3-yl-2-pyrrolidin-1-yl-ethyl)-amide] |  |  | ≤ 1000 nM |  | 1000 to 25000 nM |  |  |  |  | IC50 (HL60-MX1 (MDR)): 1000 to 25000 nM; IC50 (H69-AR (MDR)): ≤ 1000 nM; IC50 (MES-SA/Dx5): ≤ 1000 nM; IC50 (NCI-ADR): 1000 to 25000 nM
O=C(Nc1ccc(Cl)nc1)c1ccc(Cl)c(-c2ccc(-c3ccccc3)cc2)c1 [Compound 13, 6-Chloro-[1,1′;4′,1″]terphenyl-3-carboxylic acid (6-chloro-pyridin-3-yl)-amide] |  | ≤ 1000 nM | ≤ 1000 nM | ≤ 1000 nM | 1000 to 25000 nM | 1000 to 25000 nM | ≤ 1000 nM | 1000 to 25000 nM | ≤ 1000 nM | 
COc1ccc(NC(=O)c2ccc(Cl)c(-c3cccc(C(N)=O)c3)c2)cn1 | < 1000 nM |  |  |  |  |  |  |  |  | 
C=C[S+]([O-])c1ccc(NC(=O)c2ccc(Cl)c(-c3ccc(-c4ccccc4)cc3)c2)cn1 (centres unmarked) | 1000 to 10000 nM |  |  |  |  |  |  |  |  | 
O=C(Nc1nnc(C(F)(F)F)s1)c1ccc(Cl)c(-c2ccc(-c3ccccc3)cc2)c1 | 1000 to 10000 nM |  |  |  |  |  |  |  |  | 
CCN(CC)CCNC(=O)c1ccc(Cl)c(-c2ccc(-c3ccccc3)cc2)c1 | < 1000 nM |  |  |  |  |  |  |  |  | 
COc1ccc(NC(=O)c2ccc(Cl)c(-c3cccc(-c4ccccc4)c3)c2)cn1 [Compound 68, 6-Chloro-[1,1′;3′,1″]terphenyl-3-carboxylic acid (6-methoxy-pyridin-3-yl)-amide] |  | ≤ 1000 nM | ≤ 1000 nM |  |  |  |  |  |  | 
COc1ccc(NC(=O)c2ccc(Cl)c(-c3ccc(-c4cccc(S(C)(=O)=O)c4)cc3)c2)cn1 | < 1000 nM |  |  |  |  |  |  |  |  | 
O=C(NC(CC1CCCCC1)C(=O)O)c1ccc(Cl)c(-c2cccc(-c3ccccc3)c2)c1 (centres unmarked) [Compound 236, 2-[(6-Chloro-[1,1′;3′,1″]terphenyl-3-carbonyl)-amino]-3-cyclohexyl-propionic acid] |  |  | > 25000 nM |  | > 25000 nM |  |  |  |  | 
COc1ccc(NC(=O)c2ccc(Cl)c(-c3ccc(-c4cccc(O)c4)cc3)c2)cn1 | < 1000 nM |  |  |  |  |  |  |  |  | 
CC(C)(C)OC(=O)NOC(=O)c1ccc(Cl)c(-c2ccc(-c3ccccc3)cc2)c1 | > 10000 nM |  |  |  |  |  |  |  |  | 
COc1ccc(NC(=O)c2ccc(Cl)c(-c3ccc(-c4ccccc4)c(F)c3)c2)cn1 [Compound 6, 6″-Chloro-2′-fluoro-[1,1′;4′,1″]terphenyl-3″-carboxylic acid (6-methoxy-pyridin-3-yl)-amide] |  | ≤ 1000 nM | ≤ 1000 nM | ≤ 1000 nM | 1000 to 25000 nM | 1000 to 25000 nM | ≤ 1000 nM | 1000 to 25000 nM | ≤ 1000 nM | IC50 (HL60-MX1 (MDR)): ≤ 1000 nM; IC50 (H69-AR (MDR)): ≤ 1000 nM; IC50 (MES-SA/Dx5): ≤ 1000 nM; IC50 (NCI-ADR): ≤ 1000 nM
O=C(NC1=NCCS1)c1ccc(Cl)c(-c2ccc(-c3ccccc3)cc2)c1 [Compound 33, 6″-Chloro-[1,1′;4′,1″]terphenyl-3″-carboxylic acid (4,5-dihydro-thiazol-2-yl)-amide] |  | 1000 to 25000 nM | 1000 to 25000 nM | > 25000 nM | 1000 to 25000 nM | 1000 to 25000 nM | 1000 to 25000 nM | 1000 to 25000 nM | 1000 to 25000 nM | IC50 (HL-60): 1000 to 25000 nM
O=C(Nc1ccc(F)nc1)c1ccc(Cl)c(-c2ccc(-c3ccccc3)cc2)c1 [Compound 338, 6-Chloro-[1,1′;4′,1″]terphenyl-3-carboxylic acid (6-fluoro-pyridin-3-yl)-amide] |  | ≤ 1000 nM | ≤ 1000 nM | ≤ 1000 nM | ≤ 1000 nM | 1000 to 25000 nM | ≤ 1000 nM | 1000 to 25000 nM | ≤ 1000 nM | 
CS(=O)(=O)c1ccc(-c2cc(C(=O)NC3=NCCS3)ccc2Cl)cc1 | 1000 to 10000 nM |  |  |  |  |  |  |  |  | 
COc1ccc(NC(=O)c2ccc(Cl)c(-c3cccc(O)c3)c2)cn1 | < 1000 nM |  |  |  |  |  |  |  |  | 
COc1ncc(NC(=O)c2ccc(Cl)c(-c3ccc(-c4ccccc4)cc3)c2)cn1 | < 1000 nM |  |  |  |  |  |  |  |  | 
